# Read-outs that look alike come from different tables or passages of the source.
# Experiments:
# [1] = system: Pseudomonas aeruginosa A9843; experiment: In vivo efficacy, experimental infection in mice, intramuscular treatment, Pseudomonas aeruginosa A9843; parameters: species or system Pseudomonas aeruginosa (infected mice); details: A9843, im, 120 h, read-out: PD50 Pseudomonas aeruginosa A9843
# Method: (§1) The in vivo efficacy was evaluated by intramuscular treatment against three kinds of experimental infection in mice.
# (§2) The in vivo tests were carried out using the following three pathogenic organisms:
# Pseudomonas aeruginosa A9843
# (§3) Mice were challenged intraperitoneally with approximately a 100×LD50 dose of the pathogens in a 5% mucin suspension. The mice were treated with test compound by I.M. route immediately after the bacterial challenge.
# Pseudomonas aeruginosa = experiment: In vitro MIC, serial two-fold agar dilution, secondary evaluation against Pseudomonas aeruginosa strains; format: cell-based; details: CBPC = 100%, geometric mean of MICs
# Method: (§4) Minimun inhibitory concentrations (MIC) were determined by the serial two-fold agar dilution method using Steers' apparatus on Mueller-Hinton agar plate against 31 test organisms for the primary screening and also against 64 strains of Pseudomonas aeruginosa for the secondary evaluation. The results are shown in Table 1 in terms of relative activity with respect to the standard compound CBPC (carbenicillin) which was set at 100%. In each group the calculation was based on the geometric mean of the observed MICs.
# Ps. aeruginosa = experiment: In vitro MIC, serial two-fold agar dilution, primary evaluation Ps (6 strains); format: cell-based; details: CBPC = 100%, geometric mean of MICs
# Method: as §4
# Ps. = Ps. aeruginosa (6).
# [2] = Antibiotic blood levels in mice following intramuscular administration (paper disc-agar diffusion, Escherichia coli NIHJ as assay organism); format: in vivo; details: mouse, im, I.M., 20 mg./kg.; for half-life: read-out: Blood level, Half-life; for Cmax: read-out: Blood level, Peak Concentration
# Method: Antibiotic blood levels were determined in mice following intramuscular administration of the test compounds at 20 mg./kg. The blood samples were collected from the orbital sinuses into heparinized capillary tubes at 15, 30, 60 and 120 minutes after administration. The antibiotic concentration was determined by the paper disc-agar diffusion method using Escherichia coli NIHJ as the assay organism.
# S. aureus = experiment: In vitro MIC, serial two-fold agar dilution, primary evaluation Gp (S. aureus, 6 strains); format: cell-based; details: CBPC = 100%, geometric mean of MICs
# Method: as §4
# *GP = S. aureus (6 strains);
# [3] = system: E. coli (9), Klebsiella sp. (2), Pr. mirabilis (1), Sal. enteritidis (1); experiment: In vitro MIC, serial two-fold agar dilution, primary evaluation Gn-I (E. coli, Klebsiella sp., Pr. mirabilis, Sal. enteritidis); format: cell-based; details: CBPC = 100%, geometric mean of MICs
# Method: as §4
# GnI = E. coli (9), Klebsiella sp. (2), Pr. mirabilis (1), Sal.
# [4] = system: Staphylococcus aureus Smith; experiment: In vivo efficacy, experimental infection in mice, intramuscular treatment, Staphylococcus aureus Smith; parameters: species or system Staphylococcus aureus (infected mice); details: im, 120 h, read-out: PD50 Staphylococcus aureus Smith
# Method: as §1, §2
# Staphylococcus aureus Smith
# as §3
# [5] = system: Ent. cloacae (3), Pr. vulgaris (1), Pr. morganii (1), S. marcescen (1); experiment: In vitro MIC, serial two-fold agar dilution, primary evaluation Gn-II (Ent. cloacae, Pr. vulgaris, Pr. morganii, S. marcescens); format: cell-based; details: CBPC = 100%, geometric mean of MICs
# Method: as §4
# GnII = Ent. cloacae (3), Pr. vulgaris (1), Pr. morganii (1), S. marcescen
# Escherichia coli Juhl = experiment: In vivo efficacy, experimental infection in mice, intramuscular treatment, Escherichia coli Juhl; parameters: species or system Escherichia coli (infected mice); details: im, 120 h, read-out: PD50 Escherichia coli Juhl
# Method: as §1, §2, §3
# [6] = I.M., 100×LD50 challenge i.p., 5 days
Structure (SMILES),"ED50 [1, 6] [mg/kg]","In vitro relative activity, secondary, Pseudomonas aeruginosa (61-64) (Pseudomonas aeruginosa; 61-64 strains) [%]","In vitro relative activity, primary evaluation Ps (6) (Ps. aeruginosa; Mueller-Hinton agar) [%]",half-life [2] [min],Cmax [2] [ng/mL],"In vitro relative activity, primary evaluation Gp (6) (S. aureus; Mueller-Hinton agar) [%]","In vitro relative activity, primary evaluation Gn-I (13) ([3]; Mueller-Hinton agar) [%]","ED50 [4, 6] [mg/kg]","In vitro relative activity, primary evaluation Gn-II (6) ([5]; Mueller-Hinton agar) [%]",ED50 (Escherichia coli Juhl; [6]) [mg/kg],"ED50 ([1]; Lot 2, I.M.) [mg/kg]","In vitro relative activity, secondary, Pseudomonas aeruginosa (61-64) (Pseudomonas aeruginosa; Lot 2) [%]","In vitro relative activity, primary evaluation Ps (6) (Ps. aeruginosa; Lot 2) [%]","In vitro relative activity, primary evaluation Gp (6) (S. aureus; Lot 2) [%]","In vitro relative activity, primary evaluation Gn-I (13) ([3]; Lot 2) [%]","ED50 ([4]; Lot 2, I.M.) [mg/kg]","In vitro relative activity, primary evaluation Gn-II (6) ([5]; Lot 2) [%]","ED50 (Escherichia coli Juhl; Lot 2, I.M.) [mg/kg]"
"O=C(O)Cc1ccc[n+](CC2=C(C(=O)[O-])N3C(=O)C(NC(=O)[C@H](NC(=O)c4cnc5cccnc5c4O)c4ccc(O)cc4)C3SC2)c1 (stereo partly drawn) [BB-S580, 7-[D-α-(4-Hydroxy-1,5-naphthyridine-3-carboxamido)-α-(4-hydroxyphenyl)acetamido]-3-(3-carboxymethylpyridinium)methyl-3-cephem-4-carboxylate]",6.4,1780,2490,33,16500,27,359,2.6,33,1.2,–,–,–,–,–,–,–,–
O=C([O-])C1=C(C[n+]2cccc(C(=O)O)c2)CSC2C(NC(=O)[C@H](NC(=O)c3cnc4cccnc4c3O)c3ccc(O)c(O)c3)C(=O)N12 (some centres unmarked) [BB-S608],2.4,1207,975,50,8500,13,53,8.5,14,1.4,–,–,–,–,–,–,–,–
"O=C(O)C=Cc1ccc[n+](CC2=C(C(=O)[O-])N3C(=O)C(NC(=O)[C@H](NC(=O)c4cnc5cccnc5c4O)c4ccccc4)C3SC2)c1 (stereo partly drawn) [BB-S603, 7-[D-α-(4-Hydroxy-1,5-naphthyridine-3-carboxamide)-α-phenyl-acetamido]-3-(3-carboxyvinylpyridinium)methyl-3-cephem-4-carboxylate]",18,1270,1150,44,9000,73,80,1.15,38,2.2,–,–,–,–,–,–,–,–
O=C(O)C=Cc1ccc[n+](CC2=C(C(=O)[O-])N3C(=O)C(NC(=O)[C@H](NC(=O)c4cnc5cccnc5c4O)c4ccc(O)c(O)c4)C3SC2)c1 (some centres unmarked) [BB-S610],2.8,491,656,60,6200,16,57,17,14,1.8,–,–,–,–,–,–,–,–
"O=C(O)C=Cc1ccc[n+](CC2=C(C(=O)[O-])N3C(=O)C(NC(=O)[C@H](NC(=O)c4cnc5cccnc5c4O)c4ccc(O)cc4)C3SC2)c1 (stereo partly drawn) [BB-S589, 7-[D-α-(4-Hydroxy-1,5-naphthyridine-3-carboxamido)-α-(4-hydroxyphenyl)acetamido]-3-[3-(2-carboxyvinyl)pyridinium]methyl-3-cephem-4-carboxylate]",4,1880,1449,60,7000,56,146,–,14,–,3.2,2970,2900,45,107,3.7,44,1.9
"O=C(O)Cc1ccc[n+](CC2=C(C(=O)[O-])N3C(=O)C(NC(=O)[C@H](NC(=O)c4cnc5cccnc5c4O)c4ccc(O)c(Cl)c4)C3SC2)c1 (stereo partly drawn) [BB-S604, 7-[D-α-(4-Hydroxy-1,5-naphthyridine-3-carboxamido)-α-(3-chloro-4-hydroxyphenyl)acetamido]-3-(3-carboxymethylpyridinium)-methyl-3-cephem-4-carboxylate]",6.2,2030,1450,56,10500,50,94,2.5,45,2.4,–,–,–,–,–,–,–,–
"O=C([O-])C1=C(C[n+]2ccc(C(=O)O)cc2)CSC2C(NC(=O)[C@H](NC(=O)c3cnc4cccnc4c3O)c3ccc(O)cc3)C(=O)N12 (stereo partly drawn) [BB-S584, 7-[D-α-(4-Hydroxy-1,5-naphthyridine-3-carboxamido)-α-(4-hydroxyphenyl)acetamido]-3-(4-carboxypyridinium)methyl-3-cephem-4-carboxylate]",36,1180,725,81,12500,22,166,7.6,14,4.2,–,–,–,–,–,–,–,–
"O=C([O-])C1=C(C[n+]2cccc(S(=O)(=O)O)c2)CSC2C(NC(=O)[C@H](NC(=O)c3cnc4cccnc4c3O)c3ccc(O)cc3)C(=O)N12 (stereo partly drawn) [BB-S587, 7-[D-α-(4-Hydroxy-1,5-naphthyridine-3-carboxamido)-α-(4-hydroxyphenyl)acetamido]-3-(3-sulfopyridinium)methyl-3-cephem-4-carboxylate]",3.13,3380,2378,40,3000,28,166,–,16,–,2.2,3570,3200,56,87,3.7,19,2.4

# Reference: US4198504A, “[3-(Pyridinium)-7-(naphthyiridinyl carbonylamino)acetamido]cephalosporanic acid derivatives” (Bristol-Myers Company, priority 1978, dated 1980)
